For the experiment, the system named is Respiratory Syncytial Virus. The experiment can be described thus: microbe, parasite or virus in culture. It is filed as cell-based. The settings on record: human respiratory syncytial virus, 168 h; antiviral activity; protection against cytopathology caused by RSV in HeLa cells, MTT read-out seven days after infection. How it is done: The percent protection against cytopathology caused by viruses (antiviral activity or EC50) achieved by tested compounds and their cytotoxicity (CC50) are both calculated from dose-response curves.
Automated tetrazolium-based colorimetric assays were used for determination of EC50 and CC50 of test compounds. […] Subsequently, stock solutions (7.8× final test concentration) of compounds were added in 45 μl volumes to a series of triplicate wells so as to allow simultaneous evaluation of their effects on virus- and mock-infected cells. Five five-fold dilutions were made directly in the microtiter trays using a robot system. Untreated virus controls, and HeLa cell controls were included in each test. Approximately 100 TCID50 of Respiratory Syncytial Virus was added to two of the three rows in a volume of 50 μl. The same volume of medium was added to the third row to measure the cytotoxicity of the compounds at the same concentrations as those used to measure the antiviral activity. […] Finally, the absorbances were read in an eight-channel computer-controlled photometer (Multiskan MCC, Flow Laboratories) at two wavelengths (540 and 690 nm). The absorbance measured at 690 nm was automatically subtracted from the absorbance at 540 nm, so as to eliminate the effects of non-specific absorption.

Each structure is given as a SMILES string.

What is called EC50 is the concentration needed to bring the measured effect to its halfway point. `Cc1ccc(CCCO)c(NCc2ccc3nc(C(N)=O)n(Cc4nc(C)ccc4O)c3c2)c1` [d-10]: the EC50 was 631 nM.
